pIC50: −log10 of the molar value. Where two headings read alike, the source gives them in different places.
Target: hBTK (full-length BTK, 6HIS-tag cleaved) (Homo sapiens (Human), UniProt Q06187)
Experiment: BTK enzymatic activity, LANCE TR-FRET assay (Assay Method C)
Format: biochemical
Details: 50 pM hBTK, 25 μM ATP
[1] = LANCE TR-FRET, class 100-1000 is given as ≧100 nM-<1 μM, read-out: IC50 Btk activity values - Assay Method C

hBTK (full-length BTK, 6HIS-tag cleaved), sequence (Q06187 whole entry): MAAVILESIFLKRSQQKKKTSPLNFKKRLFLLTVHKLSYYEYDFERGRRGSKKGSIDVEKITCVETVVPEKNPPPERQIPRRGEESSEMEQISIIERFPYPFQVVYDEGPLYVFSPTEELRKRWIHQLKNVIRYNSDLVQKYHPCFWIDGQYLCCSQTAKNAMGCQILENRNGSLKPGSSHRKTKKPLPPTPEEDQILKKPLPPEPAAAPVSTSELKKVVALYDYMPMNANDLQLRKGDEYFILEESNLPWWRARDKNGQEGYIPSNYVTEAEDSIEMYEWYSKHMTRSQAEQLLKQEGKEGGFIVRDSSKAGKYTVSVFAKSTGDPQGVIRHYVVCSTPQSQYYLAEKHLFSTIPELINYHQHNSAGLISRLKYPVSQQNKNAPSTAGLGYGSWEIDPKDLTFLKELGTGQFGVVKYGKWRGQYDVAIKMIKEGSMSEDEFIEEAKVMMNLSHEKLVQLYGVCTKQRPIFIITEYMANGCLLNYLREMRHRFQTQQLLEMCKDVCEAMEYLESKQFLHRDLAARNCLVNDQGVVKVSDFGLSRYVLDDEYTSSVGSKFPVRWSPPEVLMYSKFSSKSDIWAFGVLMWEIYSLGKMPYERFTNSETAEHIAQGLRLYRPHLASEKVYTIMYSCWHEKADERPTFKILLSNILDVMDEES

Row | Structure (SMILES) | pIC50 [1] | pIC50 (Table D, Assay Method C (LANCE TR-FRET), read-out: IC50 BTK activity value)
1 | CC1(C(=O)N2CCC[C@@H](c3nc(-c4ccc(C(=O)Nc5ccc(C(F)F)cn5)cc4)c4c(N)nccn34)C2)COC1 [Example 355, 4-(8-amino-3-{(3R)-1-[(3-methyloxetan-3-yl)carbonyl]piperidin-3-yl}imidazo[1,5-a]pyrazin-1-yl)-N-[5-(difluoromethyl)pyridin-2-yl]benzamide] | > 8.00 | 8.88
2 | Cc1ccc(NC(=O)c2ccc(-c3nc([C@@H]4CCCN(C(=O)C5(C)COC5)C4)n4ccnc(N)c34)cc2)nc1 [Example 356, 4-(8-amino-3-{(3R)-1-[(3-methyloxetan-3-yl)carbonyl]piperidin-3-yl}imidazo[1,5-a]pyrazin-1-yl)-N-(5-methylpyridin-2-yl)benzamide] | > 8.00 | 
3 | CC1(C(=O)N2CCC[C@@H](c3nc(-c4ccc(C(=O)Nc5cccnn5)cc4)c4c(N)nccn34)C2)COC1 [Example 357, 4-(8-amino-3-{(3R)-1-[(3-methyloxetan-3-yl)carbonyl]piperidin-3-yl}imidazo[1,5-a]pyrazin-1-yl)-N-pyridazin-3-ylbenzamide] | 6.00 to 7.00 | 
4 | CC1(C(=O)N2CCC[C@@H](c3nc(-c4ccc(C(=O)Nc5ccc(Cl)cn5)cc4)c4c(N)nccn34)C2)COC1 [Example 358, 4-(8-amino-3-{(3R)-1-[(3-methyloxetan-3-yl)carbonyl]piperidin-3-yl}imidazo[1,5-a]pyrazin-1-yl)-N-(5-chloropyridin-2-yl)benzamide] | > 8.00 | 
5 | CC1(C(=O)N2CCC[C@@H](c3nc(-c4ccc(C(=O)Nc5ccc(C(F)(F)F)cn5)cc4)c4c(N)nccn34)C2)COC1 [Example 359, 4-(8-amino-3-{(3R)-1-[(3-methyloxetan-3-yl)carbonyl]piperidin-3-yl}imidazo[1,5-a]pyrazin-1-yl)-N-[5-(trifluoromethyl)pyridin-2-yl]benzamide] | 7.00 to 8.00 | 
6 | Cc1cc(NC(=O)c2ccc(-c3nc([C@@H]4CCCN(C(=O)C5(C)COC5)C4)n4ccnc(N)c34)cc2)ncc1F [Example 360, 4-(8-amino-3-{(3R)-1-[(3-methyloxetan-3-yl)carbonyl]piperidin-3-yl}imidazo[1,5-a]pyrazin-1-yl)-N-(5-fluoro-4-methylpyridin-2-yl)benzamide] | > 8.00 | 
7 | COc1ccnc(NC(=O)c2ccc(-c3nc([C@@H]4CCCN(C(=O)C5(C)COC5)C4)n4ccnc(N)c34)cc2)n1 [Example 361, 4-(8-amino-3-{(3R)-1-[(3-methyloxetan-3-yl)carbonyl]piperidin-3-yl}imidazo[1,5-a]pyrazin-1-yl)-N-(4-methoxypyrimidin-2-yl)benzamide] | 6.00 to 7.00 | 
8 | CCc1ccnc(NC(=O)c2ccc(-c3nc([C@@H]4CCCN(C(=O)C5(C)COC5)C4)n4ccnc(N)c34)cc2)c1 [Example 362, 4-(8-amino-3-{(3R)-1-[(3-methyloxetan-3-yl)carbonyl]piperidin-3-yl}imidazo[1,5-a]pyrazin-1-yl)-N-(4-ethylpyridin-2-yl)benzamide] | > 8.00 | 
9 | CC1(C(=O)N2CCC[C@@H](c3nc(-c4ccc(C(=O)Nc5ncc6c(n5)CCC6)cc4)c4c(N)nccn34)C2)COC1 [Example 364, 4-(8-amino-3-{(3R)-1-[(3-methyloxetan-3-yl)carbonyl]piperidin-3-yl}imidazo[1,5-a]pyrazin-1-yl)-N-(6,7-dihydro-5H-cyclopenta[d]pyrimidin-2-yl)benzamide] | 7.00 to 8.00 | 
10 | Cn1ccc(NC(=O)c2ccc(-c3nc([C@@H]4CCCN(C(=O)C5(C)COC5)C4)n4ccnc(N)c34)cc2)n1 [Example 365, 4-(8-amino-3-{(3R)-1-[(3-methyloxetan-3-yl)carbonyl]piperidin-3-yl}imidazo[1,5-a]pyrazin-1-yl)-N-(1-methyl-1H-pyrazol-3-yl)benzamide] | 7.00 to 8.00 | 
11 | Cc1cnc(NC(=O)c2ccc(-c3nc([C@@H]4CCCN(C(=O)C5(C)COC5)C4)n4ccnc(N)c34)cc2)s1 [Example 366, 4-(8-amino-3-{(3R)-1-[(3-methyloxetan-3-yl)carbonyl]piperidin-3-yl}imidazo[1,5-a]pyrazin-1-yl)-N-(5-methyl-1,3-thiazol-2-yl)benzamide] | > 8.00 | 
12 | Cc1nc(NC(=O)c2ccc(-c3nc([C@@H]4CCCN(C(=O)C5(C)COC5)C4)n4ccnc(N)c34)cc2)sc1C [Example 367, 4-(8-amino-3-{(3R)-1-[(3-methyloxetan-3-yl)carbonyl]piperidin-3-yl}imidazo[1,5-a]pyrazin-1-yl)-N-(4,5-dimethyl-1,3-thiazol-2-yl)benzamide] | > 8.00 | 
13 | CC1(C(=O)N2CCC[C@@H](c3nc(-c4ccc(C(=O)Nc5ncns5)cc4)c4c(N)nccn34)C2)COC1 [Example 368, 4-(8-amino-3-{(3R)-1-[(3-methyloxetan-3-yl)carbonyl]piperidin-3-yl}imidazo[1,5-a]pyrazin-1-yl)-N-1,2,4-thiadiazol-5-ylbenzamide] | 7.00 to 8.00 | 
14 | CC1(C(=O)N2CCC[C@@H](c3nc(-c4ccc(C(=O)Nc5ncc(C(C)(C)C)s5)cc4)c4c(N)nccn34)C2)COC1 [Example 369, 4-(8-amino-3-{(3R)-1-[(3-methyloxetan-3-yl)carbonyl]piperidin-3-yl}imidazo[1,5-a]pyrazin-1-yl)-N-(5-tert-butyl-1,3-thiazol-2-yl)benzamide] | > 8.00 | 

Second part, the compound after the results:

Row | pIC50 [1] | pIC50 (Table D, Assay Method C (LANCE TR-FRET), read-out: IC50 BTK activity value) | Structure (SMILES)
15 | 7.00 to 8.00 |  | CC1(C(=O)N2CCC[C@@H](c3nc(-c4ccc(C(=O)Nc5cnsc5)cc4)c4c(N)nccn34)C2)COC1 [Example 370, 4-(8-amino-3-{(3R)-1-[(3-methyloxetan-3-yl)carbonyl]piperidin-3-yl}imidazo[1,5-a]pyrazin-1-yl)-N-isothiazol-4-ylbenzamide]
16 | > 8.00 |  | CCc1ccnc(NC(=O)c2ccc(-c3nc([C@@H]4CCCN(C(=O)C5(O)CC5)C4)n4ccnc(N)c34)cc2)c1 [Example 371, 4-(8-amino-3-{(3R)-1-[(1-hydroxycyclopropyl)carbonyl]piperidin-3-yl}imidazo[1,5-a]pyrazin-1-yl)-N-(4-ethylpyridin-2-yl)benzamide]
17 | > 8.00 |  | CCC(=O)N1CCC[C@@H](c2nc(-c3ccc(C(=O)Nc4cc(OC)ccn4)cc3)c3c(N)nccn23)C1 [Example 372, 4-{8-amino-3-[(3R)-1-propanoylpiperidin-3-yl]imidazo[1,5-a]pyrazin-1-yl}-N-(4-methoxypyridin-2-yl)benzamide]
18 | > 8.00 |  | CC1(C(=O)N2CCC[C@@H](c3nc(-c4ccc(C(=O)Nc5cc(C(F)(F)F)ccn5)cc4)c4c(N)ncc(C#N)n34)C2)COC1 [Example 373, (R)-4-(8-amino-5-cyano-3-(1-(3-methyloxetane-3-carbonyl)piperidin-3-yl)imidazo[1,5-a]pyrazin-1-yl)-N-(4-(trifluoromethyl)pyridin-2-yl)benzamide]
19 | > 8.00 |  | CC1(C(=O)N2CCC[C@@H](n3nc(-c4ccc(C(=O)Nc5cc(C(F)(F)F)ccn5)cc4)c4c(N)nccc43)C2)COC1 [Example 381, 4-(4-amino-1-{(3R)-1-[(3-methyloxetan-3-yl)carbonyl]piperidin-3-yl}-1H-pyrazolo[4,3-c]pyridin-3-yl)-N-[4-(trifluoromethyl)pyridin-2-yl]benzamide]
20 | > 8.00 |  | CC1(C(=O)N2CCC[C@@H](n3nc(-c4ccc(C(=O)Nc5cc(C(F)(F)F)ccn5)cc4)c4c(N)ncc(Cl)c43)C2)COC1 [Example 382, 4-(4-amino-7-chloro-1-{(3R)-1-[(3-methyloxetan-3-yl)carbonyl]piperidin-3-yl}-1H-pyrazolo[4,3-c]pyridin-3-yl)-N-[4-(trifluoromethyl)pyridin-2-yl]benzamide]
21 | > 8.00 |  | COCC(=O)N1CCC[C@@H](n2nc(-c3ccc(C(=O)Nc4cc(C(F)(F)F)ccn4)cc3)c3c(N)nccc32)C1 [Example 383, 4-{4-amino-1-[(3R)-1-(methoxyacetyl)piperidin-3-yl]-1H-pyrazolo[4,3-c]pyridin-3-yl}-N-[4-(trifluoromethyl)pyridin-2-yl]benzamide]
22 | > 8.00 |  | Nc1nccc2c1c(-c1ccc(C(=O)Nc3cc(C(F)(F)F)ccn3)cc1)nn2[C@@H]1CCCN(C(=O)C2CC2)C1 [Example 384, 4-{4-amino-1-[(3R)-1-(cyclopropylcarbonyl)piperidin-3-yl]-1H-pyrazolo[4,3-c]pyridin-3-yl}-N-[4-(trifluoromethyl)pyridin-2-yl]benzamide]
23 | > 8.00 |  | CC(=O)N1CCC[C@@H](n2nc(-c3ccc(C(=O)Nc4cc(C(F)(F)F)ccn4)cc3)c3c(N)nccc32)C1 [Example 385, 4-{1-[(3R)-1-acetylpiperidin-3-yl]-4-amino-1H-pyrazolo[4,3-c]pyridin-3-yl}-N-[4-(trifluoromethyl)pyridin-2-yl]benzamide]
24 | > 8.00 |  | CCc1ccnc(NC(=O)c2ccc(-c3nn([C@@H]4CCCN(C(=O)C5(C)COC5)C4)c4ccnc(N)c34)cc2)c1 [Example 386, 4-(4-amino-1-{(3R)-1-[(3-methyloxetan-3-yl)carbonyl]piperidin-3-yl}-1H-pyrazolo[4,3-c]pyridin-3-yl)-N-(4-ethylpyridin-2-yl)benzamide]
25 | > 8.00 |  | Cc1ccnc(NC(=O)c2ccc(-c3nn([C@@H]4CCCN(C(=O)C5(C)COC5)C4)c4ccnc(N)c34)cc2)c1 [Example 387, 4-(4-amino-1-{(3R)-1-[(3-methyloxetan-3-yl)carbonyl]piperidin-3-yl}-1H-pyrazolo[4,3-c]pyridin-3-yl)-N-(4-methylpyridin-2-yl)benzamide]
26 | > 8.00 |  | COc1ccnc(NC(=O)c2ccc(-c3nn([C@@H]4CCCN(C(=O)C5(C)COC5)C4)c4ccnc(N)c34)cc2)c1 [Example 388, 4-(4-amino-1-{(3R)-1-[(3-methyloxetan-3-yl)carbonyl]piperidin-3-yl}-1H-pyrazolo[4,3-c]pyridin-3-yl)-N-(4-methoxypyridin-2-yl)benzamide]
27 | > 8.00 |  | COCCC(=O)N1C[C@H](c2nc(-c3ccc(C(=O)Nc4cc(C(F)(F)F)ccn4)c(F)c3)c3c(N)nccn23)CC[C@@H]1C [Example 392, 4-{8-amino-3-[(3R,6S)-1-(3-methoxypropanoyl)-6-methylpiperidin-3-yl]imidazo[1,5-a]pyrazin-1-yl}-2-fluoro-N-[4-(trifluoromethyl)pyridin-2-yl]benzamide]

Reference: US9718828B2 (MERCK SHARP & DOHME CORP., priority 2011, dated 2017)
